Laboratory results: PubChem BioAssay (NCI)
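Results reflect a 48-hour exposure of cells in 96-well plates to compound at five concentrations. GI50 marks 50% less growth. At the TGI there is no net growth.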

How the values were obtained:
Experiment in all cases: DTP human tumour cell line panel, 48 h
A498 renal = test system: A498 renal
A549 NSCLC = test system: A549 NSCLC
CAKI-1 renal = test system: CAKI-1 renal
HOP-62 NSCLC = test system: HOP-62 NSCLC
HOP-92 NSCLC = test system: HOP-92 NSCLC
HS 578T breast = test system: HS 578T breast
NCI-H522 lung = test system: NCI-H522 lung
NCI/ADR-RES ovarian = test system: NCI/ADR-RES ovarian
OVCAR-5 ovarian = test system: OVCAR-5 ovarian
SF-295 CNS = test system: SF-295 CNS
SK-OV-3 ovarian = test system: SK-OV-3 ovarian
SR leukemia = test system: SR leukemia
TK-10 renal = test system: TK-10 renal
UO-31 renal = test system: UO-31 renal

`S=c1sc2c(Cl)nc(-c3cccnc3)nc2n1-c1ccccc1` was tested, and the GI50 (A498 renal) was greater than 100 µM, the TGI (A498 renal) was greater than 100 µM and the GI50 (A549 NSCLC) was greater than 100 µM. The TGI (A549 NSCLC) was greater than 100 µM, the GI50 (CAKI-1 renal) was 1.67 µM and the TGI (CAKI-1 renal) was 3.14 µM. It also gave a GI50 (HOP-62 NSCLC) of 3.27 µM, a TGI (HOP-62 NSCLC) greater than 100 µM and a GI50 (HOP-92 NSCLC) of 3.18 µM. The TGI (HOP-92 NSCLC) was 30.5 µM, the GI50 (HS 578T breast) was 4.09 µM and the TGI (HS 578T breast) was greater than 100 µM. For the same compound, the GI50 (NCI-H522 lung) was 1.54 µM, the TGI (NCI-H522 lung) was 3.1 µM and the GI50 (NCI/ADR-RES ovarian) was 3.05 µM. For the same compound, the TGI (NCI/ADR-RES ovarian) was greater than 100 µM, the GI50 (OVCAR-5 ovarian) was greater than 100 µM and the TGI (OVCAR-5 ovarian) was greater than 100 µM. The GI50 (SF-295 CNS) was greater than 100 µM, the TGI (SF-295 CNS) was greater than 100 µM and the GI50 (SK-OV-3 ovarian) was greater than 100 µM. For the same compound, the TGI (SK-OV-3 ovarian) was greater than 100 µM, the GI50 (SR leukemia) was 0.556 µM and the TGI (SR leukemia) was 4.68 µM. For the same compound, the GI50 (TK-10 renal) was greater than 100 µM, the TGI (TK-10 renal) was greater than 100 µM and the GI50 (UO-31 renal) was 1.64 µM. It also gave a TGI (UO-31 renal) of 3.33 µM.
